Experiments:
[1] = test system: cytochrome p450 3A4 (CYP3A4); test: monoethylglycinexylidide; format: in vivo, human
[2] = indocyanine green clearance; format: in vivo, human; details: HIV-patients, before and 6 months after initiation of HAART

| Compound | MEGX test ([1]; HIV-patients treated with various ART combinations, p = 0.23 vs healthy controls) [µg/L] | MEGX test ([1]; healthy controls without medication) [µg/L] | indocyanine green clearance in relation to anti-retroviral regimens [2] |
| --- | --- | --- | --- |
| CCNCC(=O)Nc1c(C)cccc1C [MEGX, monoethylglycinexylidide] | 49.9 ± 25.48 | 66.29 ± 38.55 |  |
| CC1(C)C(/C=C/C=C/C=C/C=C2\N(CCCCS(=O)(=O)O)c3ccc4ccccc4c3C2(C)C)=[N+](CCCCS(=O)(=O)[O-])c2ccc3ccccc3c21 [indocyanine green] |  |  | no correlation could be found |
